What was measured:
zebrafish = experiment: Zebrafish behaviour during acute anoxia; format: in vivo; details: whole zebrafish in anoxic water post-treatment; expected
Source text: Vertebrate (zebrafish) behaviour is examined during acute anoxia. Whole zebrafish are exposed to anoxic water post-treatment with a PDE5 inhibitor, 8-bromo-GMP, KT5823, and Cantharidin. The time until the animal knocks out during anoxia is monitored.

[1] = test system: metathoracic ganglion of the locust; experiment: SD-like events evoked by high-potassium (KCl 150 mM) injection into the locust metathoracic ganglion; format: in vivo, Locusta migratoria
Source text: CSD is increasingly accepted as a primary causative agent for migraine, particularly migraine with aura. The cellular mechanisms underlying stroke, seizures and migraine are not exclusive to mammals. Using the locust (Locusta migratoria), a proven model for examining the effects of heat stress on CNS activity, a rapid rise in extracellular potassium ([K^+]o) during anoxia/hypoxia, extreme heat, and ouabain exposure was monitored. This phenomenon has all the characteristics of SD in the neocortex of mammals. Since the physiological mechanisms observed in locust SD-like events are similar to that of mammals, findings in this insect model are predictably transferable to mammals, including humans. In the locust, model SD-like events were triggered in the CNS by injecting small volumes of saline containing high levels of potassium ions (KCl at 150 mM instead of the nominal resting level of 10 mM) into the metathoracic ganglion. Potassium-sensitive microelectrodes were used to measure SD generated by KCl injections, while manipulating the PKG pathway.
This tissue response is characterised by a transient surge and subsequent clearance of potassium ions in the extracellular space ([K^+]o). During SD-like events ventilatory motor activity ceases. This was monitored using an electromyographic electrode positioned on an abdominal muscle used for ventilation (Ventilatory EMG). Upon restoration of the potassium ion gradient the neural activity recovered and preparations began to ventilate again.
The first injection was used as a control. Following the first injection, animals were allowed 10 minutes of perfusion with standard locust saline before treatment with bath applications of selected drugs (i.e. KT5823, T-0156). All drugs were dissolved in a minimum amount of DMSO before further dilution with standard locust saline to a concentration of 10^−5M and were superfused over the metathoracic ganglion for 10 minutes before the second injection. A total of 20 minutes elapsed between the first and second injection in all experiments. As shown in Figure (Bi), duration at half the maximum amplitude was used to characterize the severity of SD-like events. A significant increase was observed following the second injection when compared to the first in control animals. […] Heat shock (HS) preconditioning reduced SD duration evoked by the first and second injections. […] Numbers in the histogram bars indicate number of preparations tested. Asterisks indicate statistically significant differences between the first and second injection ([…]).
Motor pattern activity was not measured for T-0156/Cantharidin treatments. […] Figure (Cii) illustrates the drug effects by showing the percentage difference in rhythm recovery time (second injection relative to first injection).
Single SD events were evoked by injection of saline (50 nL) containing elevated potassium chloride (150 mM vs. 10 mM) directly into the metathoracic ganglion. […] During SD, ventilatory motor activity monitored electromyographically (EMG) ceased and recovered upon restoration of the potassium ion gradient. The duration of the [K^+]o wave at half its maximal amplitude and the time from failure of motor patterning to the recovery of a ventilatory rhythm were measured. […] Numbers in brackets represent sample size.
As in Example 3, SD events were evoked by injection of saline (50 nL) containing elevated potassium chloride (150 mM vs. 10 mM) directly into the metathoracic ganglion of locust preparations.

SMILES: Nc1nc2c(nc(Br)n2[C@@H]2O[C@@H]3COP(=O)(O)O[C@H]3[C@H]2O)c(=O)[nH]1 [8-Br-cGMP]
- time until the animal knocks out during anoxia (zebrafish): increased sensitivity to anoxia causing early failure of behaviour (neural function)
- recovery time of ventilatory rhythm, second event versus first ([1]; Example 3, drug applied for 10 minutes prior to second injection, FIG. 3D): The recovery time was increased

SMILES: COC(=O)[C@@]1(OC)C[C@H]2O[C@]1(C)n1c3ccccc3c3c4c(c5c6ccccc6n2c5c31)C(=O)N(C)C4 [KT5823, (9S, 10R, 12R)-2,3,9,10,11,12-Hexahydro-10-methoxy-2-9-dimethyl-1-oxo-9,12-epoxy-1H-diindolo-[1,2,3-fg:3′,2′,1′-k1]pyrrolo[3,4-i][1,6]benzodiazocine-10-carboxylic acid methyl ester]
- time until the animal knocks out during anoxia (zebrafish): neuroprotection and prolonged behaviour when subject to anoxia
- length of time to recover ventilatory motor pattern activity after SD ([1]; Example 1, bath application 10^-5 M for 10 minutes before second KCl injection): untreated preparations and those treated with T-0156 took significantly longer to recover
